Measured values taken from the supplement of paper PMC10307832.

Legend:
Assay in all cases: relative viability (nuclei count vs DMSO), 5 days (fraction); higher = more cells survive
NCI-H2170 = test system: NCI-H2170
Summary of the method: (§1)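 Lung cancer cell lines in 1536-well plates got either a single drug or a fixed anchor-drug dose together with five library-drug doses (not always all listed) in √10 steps, by pin tool, on the day after seeding. Nuclei were counted after 5 days, and relative viability is the treated-to-vehicle ratio of nuclei counts. Values are medians of duplicate plates.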

PC-3 [JPC-3] = test system: PC-3 [JPC-3]
Summary of the method: as §1

SK-MES-1 = test system: SK-MES-1
Summary of the method: as §1

H3255 = test system: H3255
Summary of the method: as §1

NCI-H1666 = test system: NCI-H1666
Summary of the method: as §1

EMC-BAC-2 = test system: EMC-BAC-2
Summary of the method: as §1

NCI-H1563 = test system: NCI-H1563
Summary of the method: as §1

NCI-H1975 = test system: NCI-H1975
Summary of the method: as §1

HCC-366 = test system: HCC-366
Summary of the method: as §1

NCI-H520 = test system: NCI-H520
Summary of the method: as §1

NCI-H596 = test system: NCI-H596
Summary of the method: as §1

LOU-NH91 = test system: LOU-NH91
Summary of the method: as §1

COR-L 105 = test system: COR-L 105
Summary of the method: as §1

EKVX = test system: EKVX
Summary of the method: as §1

NCI-H23 = test system: NCI-H23
Summary of the method: as §1

A-427 = test system: A-427
Summary of the method: as §1

NCI-H441 = test system: NCI-H441
Summary of the method: as §1

NCI-H1755 = test system: NCI-H1755
Summary of the method: as §1

LK-2 = test system: LK-2
Summary of the method: as §1

NCI-H1734 = test system: NCI-H1734
Summary of the method: as §1

Compound `COc1cc2nccc(Oc3ccc(NC(=O)Nc4cc(C)on4)c(Cl)c3)c2cc1OC` [Tivozanib] + Cc1nc(NC(=O)N2CCC[C@H]2C(N)=O)sc1-c1ccnc(C(C)(C)C(F)(F)F)c1 [Alpelisib] (partner 2 µM) has a relative viability (NCI-H2170; first compound 0.005 µM) of 0.885, a relative viability (NCI-H2170; first compound 0.01581 µM) of 0.952 and a relative viability (NCI-H2170; first compound 0.05 µM) of 0.799. The relative viability (NCI-H2170; first compound 0.5 µM) was 0.867, the relative viability (PC-3 [JPC-3]; first compound 0.005 µM) was 0.988 and the relative viability (PC-3 [JPC-3]; first compound 0.01581 µM) was 1.11. It also gave a relative viability (PC-3 [JPC-3]; first compound 0.05 µM) of 1.15, a relative viability (PC-3 [JPC-3]; first compound 0.1581 µM) of 0.957 and a relative viability (PC-3 [JPC-3]; first compound 0.5 µM) of 0.997. The relative viability (SK-MES-1; first compound 0.005 µM) was 0.763, the relative viability (SK-MES-1; first compound 0.01581 µM) was 1.08 and the relative viability (SK-MES-1; first compound 0.05 µM) was 0.876. For the same compound, the relative viability (SK-MES-1; first compound 0.1581 µM) was 0.869, the relative viability (SK-MES-1; first compound 0.5 µM) was 0.857 and the relative viability (H3255; first compound 0.005 µM) was 0.727. It also gave a relative viability (H3255; first compound 0.01581 µM) of 0.716, a relative viability (H3255; first compound 0.05 µM) of 0.684 and a relative viability (H3255; first compound 0.1581 µM) of 0.689. The relative viability (H3255; first compound 0.5 µM) was 0.615, the relative viability (NCI-H1666; first compound 0.005 µM) was 1 and the relative viability (NCI-H1666; first compound 0.01581 µM) was 0.853. The relative viability (NCI-H1666; first compound 0.05 µM) was 1.06, the relative viability (NCI-H1666; first compound 0.1581 µM) was 0.965 and the relative viability (NCI-H1666; first compound 0.5 µM) was 1.01. The relative viability (EMC-BAC-2; first compound 0.005 µM) was 0.722, the relative viability (EMC-BAC-2; first compound 0.01581 µM) was 0.736 and the relative viability (EMC-BAC-2; first compound 0.05 µM) was 0.753. The relative viability (EMC-BAC-2; first compound 0.1581 µM) was 0.696, the relative viability (EMC-BAC-2; first compound 0.5 µM) was 0.774 and the relative viability (NCI-H1563; first compound 0.005 µM) was 0.926. The relative viability (NCI-H1563; first compound 0.01581 µM) was 0.976, the relative viability (NCI-H1563; first compound 0.05 µM) was 0.972 and the relative viability (NCI-H1563; first compound 0.1581 µM) was 0.843. The relative viability (NCI-H1563; first compound 0.5 µM) was 0.835, the relative viability (NCI-H1975; first compound 0.005 µM) was 0.587 and the relative viability (NCI-H1975; first compound 0.01581 µM) was 0.652. The relative viability (NCI-H1975; first compound 0.05 µM) was 0.672, the relative viability (NCI-H1975; first compound 0.1581 µM) was 0.62 and the relative viability (NCI-H1975; first compound 0.5 µM) was 0.643. For the same compound, the relative viability (HCC-366; first compound 0.005 µM) was 0.297, the relative viability (HCC-366; first compound 0.01581 µM) was 0.448 and the relative viability (HCC-366; first compound 0.05 µM) was 0.381. For the same compound, the relative viability (HCC-366; first compound 0.1581 µM) was 0.51, the relative viability (HCC-366; first compound 0.5 µM) was 0.388 and the relative viability (NCI-H520; first compound 0.005 µM) was 0.773. For the same compound, the relative viability (NCI-H520; first compound 0.01581 µM) was 0.847, the relative viability (NCI-H520; first compound 0.05 µM) was 1.02 and the relative viability (NCI-H520; first compound 0.1581 µM) was 0.74. It also gave a relative viability (NCI-H520; first compound 0.5 µM) of 0.714, a relative viability (NCI-H596; first compound 0.005 µM) of 0.462 and a relative viability (NCI-H596; first compound 0.01581 µM) of 0.464. The relative viability (NCI-H596; first compound 0.05 µM) was 0.544, the relative viability (NCI-H596; first compound 0.1581 µM) was 0.47 and the relative viability (NCI-H596; first compound 0.5 µM) was 0.595. For the same compound, the relative viability (LOU-NH91; first compound 0.005 µM) was 0.69, the relative viability (LOU-NH91; first compound 0.01581 µM) was 0.698 and the relative viability (LOU-NH91; first compound 0.05 µM) was 0.778. The relative viability (LOU-NH91; first compound 0.1581 µM) was 0.732, the relative viability (LOU-NH91; first compound 0.5 µM) was 0.752 and the relative viability (COR-L 105; first compound 0.01581 µM) was 1.2. It also gave a relative viability (COR-L 105; first compound 0.05 µM) of 0.933, a relative viability (COR-L 105; first compound 0.1581 µM) of 1.04 and a relative viability (COR-L 105; first compound 0.5 µM) of 1.07. The relative viability (EKVX; first compound 0.005 µM) was 0.903, the relative viability (EKVX; first compound 0.01581 µM) was 0.93 and the relative viability (EKVX; first compound 0.05 µM) was 0.958. It also gave a relative viability (EKVX; first compound 0.1581 µM) of 0.888, a relative viability (EKVX; first compound 0.5 µM) of 0.872 and a relative viability (NCI-H23; first compound 0.005 µM) of 0.735. It also gave a relative viability (NCI-H23; first compound 0.01581 µM) of 0.651, a relative viability (NCI-H23; first compound 0.05 µM) of 0.615 and a relative viability (NCI-H23; first compound 0.1581 µM) of 0.497. For the same compound, the relative viability (NCI-H23; first compound 0.5 µM) was 0.561, the relative viability (A-427; first compound 0.005 µM) was 1.05 and the relative viability (A-427; first compound 0.01581 µM) was 1.1. The relative viability (A-427; first compound 0.05 µM) was 1.12, the relative viability (A-427; first compound 0.1581 µM) was 0.925 and the relative viability (A-427; first compound 0.5 µM) was 1.06. The relative viability (NCI-H441; first compound 0.005 µM) was 0.711, the relative viability (NCI-H441; first compound 0.01581 µM) was 0.452 and the relative viability (NCI-H441; first compound 0.05 µM) was 0.57. It also gave a relative viability (NCI-H441; first compound 0.1581 µM) of 0.632, a relative viability (NCI-H441; first compound 0.5 µM) of 0.56 and a relative viability (NCI-H1755; first compound 0.005 µM) of 0.925. The relative viability (NCI-H1755; first compound 0.01581 µM) was 0.888, the relative viability (NCI-H1755; first compound 0.05 µM) was 1.01 and the relative viability (NCI-H1755; first compound 0.1581 µM) was 0.934. For the same compound, the relative viability (NCI-H1755; first compound 0.5 µM) was 0.84, the relative viability (LK-2; first compound 0.005 µM) was 0.93 and the relative viability (LK-2; first compound 0.01581 µM) was 1.19. The relative viability (LK-2; first compound 0.05 µM) was 1.55, the relative viability (LK-2; first compound 0.1581 µM) was 0.84 and the relative viability (LK-2; first compound 0.5 µM) was 0.896. It also gave a relative viability (NCI-H1734; first compound 0.005 µM) of 0.656, a relative viability (NCI-H1734; first compound 0.01581 µM) of 0.66 and a relative viability (NCI-H1734; first compound 0.05 µM) of 0.702. It also gave a relative viability (NCI-H1734; first compound 0.1581 µM) of 0.536 and a relative viability (NCI-H1734; first compound 0.5 µM) of 0.727.
